Laboratory results reported in patent US8304418B2, “Pyrazolopyrimidinone kinase inhibitor” (Agennix AG, priority 2007, dated 2012).
≈ marks a conversion by molar mass, not a printed value. Where “and” joins values, the source holds several entries; their conditions need not be identical. Equal values may be shown once. Read-outs that look alike come from different tables or passages of the source.

Tests used:
CDK9 = CDK9 (Homo sapiens, UniProt P50750); assay: Biochemical CDK9 inhibition assay; settings: read-out: enzymatic IC50 of CDK9 activity
Chain of CDK9 (P50750 whole entry): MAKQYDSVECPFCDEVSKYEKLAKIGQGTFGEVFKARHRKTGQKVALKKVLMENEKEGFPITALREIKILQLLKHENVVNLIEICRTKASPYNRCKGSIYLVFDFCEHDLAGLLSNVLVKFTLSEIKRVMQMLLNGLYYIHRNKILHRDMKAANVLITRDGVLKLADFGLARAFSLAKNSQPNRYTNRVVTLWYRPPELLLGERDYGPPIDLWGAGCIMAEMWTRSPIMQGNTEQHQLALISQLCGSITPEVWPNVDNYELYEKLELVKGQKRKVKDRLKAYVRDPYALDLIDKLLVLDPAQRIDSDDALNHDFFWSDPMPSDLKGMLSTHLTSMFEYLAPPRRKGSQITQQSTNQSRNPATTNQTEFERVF
Chain of CDK9 (O60563 whole entry partner): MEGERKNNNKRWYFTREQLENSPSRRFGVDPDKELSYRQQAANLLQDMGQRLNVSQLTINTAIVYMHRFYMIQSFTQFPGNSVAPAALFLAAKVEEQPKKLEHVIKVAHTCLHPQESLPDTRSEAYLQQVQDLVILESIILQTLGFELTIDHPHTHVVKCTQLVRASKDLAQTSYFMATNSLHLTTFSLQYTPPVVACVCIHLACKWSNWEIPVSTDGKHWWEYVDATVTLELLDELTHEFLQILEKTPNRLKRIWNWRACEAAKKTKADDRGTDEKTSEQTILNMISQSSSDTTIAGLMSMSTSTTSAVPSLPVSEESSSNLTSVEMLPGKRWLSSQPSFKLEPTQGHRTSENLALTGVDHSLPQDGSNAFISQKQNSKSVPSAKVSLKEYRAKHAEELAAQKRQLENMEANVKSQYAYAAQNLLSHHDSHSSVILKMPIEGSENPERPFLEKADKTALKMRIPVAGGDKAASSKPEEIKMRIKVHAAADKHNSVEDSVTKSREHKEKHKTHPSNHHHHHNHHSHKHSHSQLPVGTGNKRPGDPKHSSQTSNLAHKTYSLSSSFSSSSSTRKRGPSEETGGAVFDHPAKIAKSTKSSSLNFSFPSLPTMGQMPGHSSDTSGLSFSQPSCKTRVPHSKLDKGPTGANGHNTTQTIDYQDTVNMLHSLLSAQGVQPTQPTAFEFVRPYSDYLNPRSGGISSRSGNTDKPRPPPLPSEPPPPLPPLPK
Description: (§1) The assays used for determining the properties of the kinase inhibitors were performed in accordance with standard procedures well known to those skilled in the art. For example, assays for determining inhibitory activity on CDKs or in cellular assays are described in WO 00/218962, WO 2005/026129, and WO 2005/063765. Solubility assays at pH 7.4 were essentially performed as described by Avdeef, A. in Pharmacokinetic Optimization in Drug Research; Testa, B.; van de Waterbeemd, H.; Folkers, G.; Guy, R. Eds.; Wiley-VHC: Zurich, 2001; pp 305-326. PAMPA permeability assays at pH 7.4 were essentially performed as described in Kansy et al., J. Med. Chem. 41: 1007-10, 1998.

[1] = test system: CDK9-specific phosphorylation of RNA polymerase II (RNAPII) on serine 2; assay: In-cell RNAPII phosphorylation (immunoblot); type: cell-based, human; settings: Homo sapiens, 3 h
Description: (§2) The following cancer cell lines were investigated in the course of these studies: A2780 (ovarian), HCT116 (colon), RPMI8226 (myeloma), SKMel28 (melanoma), Colo205 (colorectal), MDA-MB-435 (melanoma), MDA-MB-453 (breast, carcinoma), MDA-MB-468 (breast, adenocarcinoma), A549 (lung), Raji (lymphoma, Burkitt). Cell lines were obtained from public repositories.
CDK9-specific phosphorylation of RNA polymerase II (RNAPII) on Serine 2 (Ser2). Asynchronous cells were treated with an appropriate concentration of test compound or DMSO as a control. After 3 h incubation (37° C./5% CO2) cells were lysed with CLB-1 lysis buffer (Zeptosense, Switzerland), the lysate was cleared by centrifugation (10 min, 13000 rpm, RT) and subjected to SDS-PAGE. Total protein was blotted on PVDF membranes and analyzed using antibodies against S2-phosphorylated RNAPII (H5; Covance) or total RNAPII (N-20; Santa Cruz) as an expression control. Visualization was conducted using secondary Alexa680- or IR800-coupled antibodies (Molecular Probes) against mouse or rabbit Fc tails on the Odyssey-system (Licor). Specific bands were quantified and IC50 values of inhibition of RNAPII phosphorylation were estimated.

CDK4 = CDK4 (Homo sapiens, UniProt P11802); assay: Biochemical CDK4 inhibition assay
Chain of CDK4 (P11802 whole entry): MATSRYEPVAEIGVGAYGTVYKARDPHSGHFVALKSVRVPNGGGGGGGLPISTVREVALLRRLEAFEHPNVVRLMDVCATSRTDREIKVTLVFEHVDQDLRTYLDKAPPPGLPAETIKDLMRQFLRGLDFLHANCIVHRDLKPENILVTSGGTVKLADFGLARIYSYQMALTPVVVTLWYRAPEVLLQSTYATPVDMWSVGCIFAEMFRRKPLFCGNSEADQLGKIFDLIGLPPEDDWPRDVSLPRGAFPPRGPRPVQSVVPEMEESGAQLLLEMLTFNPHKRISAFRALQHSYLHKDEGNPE
Chain of CDK4 (P24385 whole entry partner): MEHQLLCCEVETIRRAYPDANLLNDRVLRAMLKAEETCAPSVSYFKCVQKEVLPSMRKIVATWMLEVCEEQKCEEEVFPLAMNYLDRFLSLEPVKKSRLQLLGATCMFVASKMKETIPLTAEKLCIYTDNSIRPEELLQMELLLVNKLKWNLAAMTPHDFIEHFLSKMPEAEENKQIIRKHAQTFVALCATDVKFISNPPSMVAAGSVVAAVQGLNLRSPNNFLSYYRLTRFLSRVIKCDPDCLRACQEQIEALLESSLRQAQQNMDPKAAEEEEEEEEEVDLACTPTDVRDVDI
Description: as §1

[2] = Solubility assay at pH 7.4; type: physicochemical; settings: pH 7.4, aqueous buffer
Description: as §1

[3] = PAMPA permeability assay at pH 7.4; type: in vitro ADME
Description: as §1

CDK1 = CDK1 (Homo sapiens, UniProt P06493); assay: Biochemical CDK1 inhibition assay
Chain of CDK1 (P06493 whole entry): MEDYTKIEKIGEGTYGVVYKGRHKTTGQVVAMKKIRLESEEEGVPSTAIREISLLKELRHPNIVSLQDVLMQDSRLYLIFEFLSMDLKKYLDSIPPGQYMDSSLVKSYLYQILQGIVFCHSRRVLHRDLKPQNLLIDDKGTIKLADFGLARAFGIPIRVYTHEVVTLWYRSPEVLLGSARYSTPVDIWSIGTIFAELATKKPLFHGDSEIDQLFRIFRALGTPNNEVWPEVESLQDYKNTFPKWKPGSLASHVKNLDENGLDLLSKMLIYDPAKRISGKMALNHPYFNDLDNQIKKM
Chain of CDK1 (P14635 whole entry partner): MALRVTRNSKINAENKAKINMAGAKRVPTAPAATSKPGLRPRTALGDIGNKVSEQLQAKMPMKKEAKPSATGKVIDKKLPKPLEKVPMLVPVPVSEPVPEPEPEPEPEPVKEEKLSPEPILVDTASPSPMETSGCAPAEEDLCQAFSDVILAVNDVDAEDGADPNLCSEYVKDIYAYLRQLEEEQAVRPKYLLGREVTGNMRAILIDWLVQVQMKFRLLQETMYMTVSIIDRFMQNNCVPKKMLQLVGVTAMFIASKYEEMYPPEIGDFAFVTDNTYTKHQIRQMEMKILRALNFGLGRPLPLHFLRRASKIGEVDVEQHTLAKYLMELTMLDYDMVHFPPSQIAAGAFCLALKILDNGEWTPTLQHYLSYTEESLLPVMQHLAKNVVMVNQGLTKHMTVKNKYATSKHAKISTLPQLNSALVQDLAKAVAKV
Description: as §1

H460 NSCLC = settings: H460; for Max % TGI (d): day 13
Description: Xenograft Tumor-Models: 100 athymic nu/nu female mice (6-8 weeks old) from CRL were allowed to acclimate for 4 days. […] The 3rd passage of cells with approximate 90% confluence was used for these experiments. Briefly, on Day 0, mice were inoculated with 0.1 ml (total 5×10^6 cells) of the respective cell-type as a cell suspension (50×10^6 cells/ml) by subcutaneous injection into the fat pad area near the mammary gland under light anesthesia. When the average tumor weight in all mice reached over 100 mg (day 10), 80 animals with an average tumor size of 130 mg were selected and were randomly divided into 8 groups.
A 20 G gavage needle was used for the oral treatment.
Tumor growth and body weight were monitored and recorded three times a week. Tumors were measured by determining the length and width of the tumor with a digital caliper. Tumor weight was estimated using the following formula: Tumor Weight (mg)=(w^2×1)×0.52 where w=width and l=length in mm of the tumor.
Experimental treatment may cause partial regression (PR) or complete regression (CR) of tumors. PR is defined when the tumor size is 50% or less than the starting (day 1) size but greater than 0.0 mg for three consecutive measurements during the course of the study. CR occurs when there is no measurable tumor mass for three consecutive measurements. Cures are defined when CR are maintained until the completion of the experiment.
Mice were sacrificed when their tumors reached the 1000 mm^3 endpoint volume. Treatment efficacy was determined as Log Cell Kill (LCK).
Toxic deaths are defined as deaths caused by compound treatment and not by advanced disease state. […] Non-tumor related deaths after this point are recorded, but not considered toxic deaths.
Briefly, the empirical distributions of T and Td were derived from B=1000 realisations of random selection of n individual animals with replacement from the set i=1, . . . , n of the appropriate group of mice containing n evaluable animals, estimating the mean tumor size for such selection of animals for each time-point, and linear regression analysis from a semi-log plot of such averages against time. Dead mice and mice with no measurable tumor size were treated as missing data and were ignored when calculating the average.

HCT116 = assay: Cell proliferation, HCT116; type: cell-based; settings: Homo sapiens, HCT-116
Description: as §1
(§3) When compared to IC50s of cellular proliferation by compound I, (as determined by the methods described earlier), the corresponding IC50 for cellular inhibition of CDK9-dependent RNAPII phosphorylation is approximately similar.

Sk-mel-28 = assay: Cell proliferation, Sk-mel-28; type: cell-based; settings: Homo sapiens
Description: as §1, §3

Colo205 = assay: Cell proliferation, Colo205; type: cell-based; settings: Homo sapiens, COLO 205
Description: as §1, §3

CDK6 = CDK6 (Homo sapiens, UniProt Q00534); assay: Biochemical CDK6 inhibition assay
Chain of CDK6 (Q00534 whole entry): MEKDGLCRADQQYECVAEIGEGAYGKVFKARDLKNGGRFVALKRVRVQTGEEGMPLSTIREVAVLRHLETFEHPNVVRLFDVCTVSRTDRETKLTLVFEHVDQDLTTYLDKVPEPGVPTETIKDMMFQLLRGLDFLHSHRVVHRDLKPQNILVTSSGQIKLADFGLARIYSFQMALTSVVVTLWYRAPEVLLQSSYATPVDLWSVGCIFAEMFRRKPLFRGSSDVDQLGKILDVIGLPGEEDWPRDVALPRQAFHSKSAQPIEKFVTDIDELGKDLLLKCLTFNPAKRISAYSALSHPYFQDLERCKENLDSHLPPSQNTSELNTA
Chain of CDK6 (P30281 whole entry partner): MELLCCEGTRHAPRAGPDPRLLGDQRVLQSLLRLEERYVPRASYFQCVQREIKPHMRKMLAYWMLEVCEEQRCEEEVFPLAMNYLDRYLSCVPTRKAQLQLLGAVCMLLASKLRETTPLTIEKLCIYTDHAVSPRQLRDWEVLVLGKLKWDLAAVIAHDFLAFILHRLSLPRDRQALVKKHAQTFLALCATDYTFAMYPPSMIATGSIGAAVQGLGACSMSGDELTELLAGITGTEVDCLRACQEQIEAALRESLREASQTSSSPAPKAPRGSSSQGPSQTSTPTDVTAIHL
Description: as §1

panel of non-CDK kinases = assay: Inhibitory activity against a panel of non-CDK kinases; type: biochemical
Description: as §1

[4] = test system: human A2780 ovarian tumor cells
Description: Compound P (as hydrochloric acid salt) was formulated in 30% PEG300/70% water, and Compound I (as hydrochloric acid salt) was formulated in 20% PEG300/80% D5W (5% dextrose water) and administered by oral gavage twice every day for 10 days (bid×10), while the Cytoxan control which was administered i.p. in saline every two days over a period of 10 days (q2 d×5): […]

[5] = test system: cell lines A2780, HCT-116, HT-29, HepG2, NCI/ADR-RES, OVCAR3, H460, IMR-90, T98G, A549 among others; assay: Inhibition of proliferation in a set of cancer-model cell lines; type: cell-based; settings: read-out: IC50 values, inhibition of proliferation (range over cell lines)
Description: as §1

A2780 = assay: Cell proliferation, A2780; type: cell-based; settings: Homo sapiens
Description: as §1, §3

[6] = test system: CDK4/6-specific phosphorylation of Rb on serine 780; assay: In-cell Rb phosphorylation (immunoblot); type: cell-based, human; settings: Homo sapiens, read-out: IC50 (uM) - Rb-5 phosphorylation
From the text: This set of assays represents CDKs involved in cell cycle progression (CDK1, 4/6), and the “regulatory CDK” (CDK9) which is involved in transcriptional regulation.
as §2
CDK4/6-specific phosphorylation of Rb on serine 780 (Ser780phos). Asynchronous growing cells were treated with an appropriate concentration of test compound or DMSO for 1 hour. Proteins were extracted using the AllPrep RNA/Protein kit according to the manufacturer's recommendations (Qiagen, Germany). Rb was immunoprecipitated over night using Ab05 antibody (Oncogene Inc.). Proteins were separated by SDS-PAGE, blotted to PVDF membranes and analyzed with antibodies against total (sc-102; Santa Cruz) or Ser780-phosphorylated Rb proteins (Cell Signalling). Visualization and quantification was performed as above.

Question: With `CC(C)c1nn(-c2c(Cl)cncc2Cl)c2nc(Cc3ccc(CN4CCCC4)c(O)c3)[nH]c(=O)c12` [Compound I, 1-(3,5-dichloropyridin-4-yl)-6-(3-hydroxy-4-pyrrolidinomethyl-phenyl)methyl-3-isopropyl-pyrazolo[3,4-d]pyrimidin-4-one] as the compound, how does the IC50 (CDK9) read?
Answer: The IC50 was 1 to 10 nM.

Question: What about the IC50 ([1]; COLO 205, Colo205 cells) of the same compound?
Answer: The IC50 was ~0.1 µM.

Question: And the IC50 ([1]; HCT-116, HCT116 cells)?
Answer: The IC50 was ~0.1 µM.

Question: What about the IC50 ([1]; RPMI-8226, RPMI8226 cells) of the same compound?
Answer: Its IC50 is ~0.1 µM.

Question: What about the IC50 ([1]; A2780 cells) of the same compound?
Answer: Its IC50 is ~0.1 µM.

Question: And the IC50 ([1]; MDA-MB-468 cells)?
Answer: The IC50 was ~0.1 µM.

Question: What about the IC50 ([1]; Sk-mel-28 cells) of the same compound?
Answer: Its IC50 is ~0.1 µM.

Question: And the IC50 (CDK4)?
Answer: The IC50 was ~50 nM.

Question: What about the solubility [2] of the same compound?
Answer: Its solubility is ~390 µM (≈ 200 µg/mL).

Question: And the “permeability in a PAMPA assay” value [3]?
Answer: The value was “about 70%”.

Question: And the IC50 (CDK1)?
Answer: The IC50 was 10 to 50 nM.

Question: And the “Toxic Mortality” value (H460 NSCLC; 32 [30] mg/kg po qdx10, N=10)?
Answer: Its value is 0.

Question: What about the “Max % TGI (d)” value (H460 NSCLC; 32 [30] mg/kg po qdx10) of the same compound?
Answer: Its value is 30.7 (13) %.

Question: What about the “LCK ± CI (95%) (Td: 2.6 d)” value (H460 NSCLC; 63 [59] mg/kg po qdx10) of the same compound?
Answer: Its value is 0.48 ± 0.15 and 0.48.

Question: And the “Toxic Mortality” value (H460 NSCLC; 63 [59] mg/kg po qdx10, N=10)?
Answer: Its value is 0.

Question: What about the “Max % TGI (d)” value (H460 NSCLC; 63 [59] mg/kg po qdx10) of the same compound?
Answer: Its value is 43.1 (13) %.

Question: And the “LCK ± CI (95%) (Td: 2.6 d)” value (H460 NSCLC; 95 [89] mg/kg po qdx10)?
Answer: Its value is 0.97 ± 0.25 and 0.97.

Question: And the “Toxic Mortality” value (H460 NSCLC; 95 [89] mg/kg po qdx10)?
Answer: Its value is 2/10.

Question: And the “Max % TGI (d)” value (H460 NSCLC; 95 [89] mg/kg po qdx10)?
Answer: The value was 57.1 (13) %.

Question: And the IC50 (HCT116)?
Answer: Its IC50 is ~0.1 µM.

Question: What about the IC50 (Sk-mel-28) of the same compound?
Answer: Its IC50 is ~0.3 µM.

Question: And the IC50 (Colo205)?
Answer: Its IC50 is ~0.1 µM.

Question: What about the IC50 (CDK6) of the same compound?
Answer: Its IC50 is 10 to 50 nM.

Question: What about the “inhibitory activity against non-CDK kinases” value (panel of non-CDK kinases) of the same compound?
Answer: Its value is “low inhibitory activity”.

Question: And the “Toxic Mortality” value ([4]; 15 [14] mg/kg po bidx10, N=10)?
Answer: The value was 0.

Question: What about the “Max % TGI (d)” value ([4]; 15 [14] mg/kg po bidx10, day 10) of the same compound?
Answer: The value was 47 (10) %.

Question: What about the “Max % BW Loss (d)” value ([4]; 15 [14 free base] mg/kg po bidx10, HCl salt, day 6) of the same compound?
Answer: The value was 0 (6) %.

Question: What about the “LCK ± CI (95%) (Td: 2.1 d)” value ([4]; 32 [30] mg/kg po bidx10) of the same compound?
Answer: The value was 1.72 ± 0.89 and 1.72.

Question: What about the “Toxic Mortality” value ([4]; 32 [30] mg/kg po bidx10, N=10) of the same compound?
Answer: The value was 0.

Question: What about the “Max % TGI (d)” value ([4]; 32 [30] mg/kg po bidx10, day 13) of the same compound?
Answer: The value was 81 (13) %.

Question: What about the “Max % BW Loss (d)” value ([4]; 32 [30] mg/kg po bidx10, day 15) of the same compound?
Answer: The value was 4.8 (15) %.

Question: What about the “LCK ± CI (95%) (Td: 2.1 d)” value ([4]; 48 [45] mg/kg po bidx10) of the same compound?
Answer: Its value is 3.38 ± 0.81 and 3.38.

Question: What about the Cure ([4]; 48 [45] mg/kg po bidx10, N=10) of the same compound?
Answer: Its Cure is 3.

Question: What about the “Toxic Mortality” value ([4]; 48 [45] mg/kg po bidx10, N=10) of the same compound?
Answer: The value was 0.

Question: What about the “Max % TGI (d)” value ([4]; 48 [45] mg/kg po bidx10, day 13) of the same compound?
Answer: The value was 97 (13) %.

Question: What about the “Max % BW Loss (d)” value ([4]; 48 [45] mg/kg po bidx10, day 15) of the same compound?
Answer: The value was 15.9 (15) %.

Question: What about the CR ([4]; 48 [45] mg/kg po bidx10, mice with complete regression, N=10) of the same compound?
Answer: The CR was 1.

Question: What about the PR ([4]; 48 [45] mg/kg po bidx10, mice with partial regression, N=10) of the same compound?
Answer: Its PR is 5.

Question: What about the IC50 [5] of the same compound?
Answer: Its IC50 is 10 to 800 nM.

Question: What about the IC50 (A2780) of the same compound?
Answer: The IC50 was ~0.1 µM.

Question: And the IC50 ([6]; A2780, 1 h, A2780 cells)?
Answer: The IC50 was ~0.5 µM.

Question: And the IC50 ([6]; HCT-116, 1 h, HCT116 cells)?
Answer: The IC50 was ~5 µM.

Question: And the IC50 ([6]; MDA-MB-435, 1 h, MDA-MB-435 cells)?
Answer: The IC50 was ~3 µM.

Question: What about the IC50 ([6]; RPMI-8226, 1 h, RPMI8226 cells) of the same compound?
Answer: Its IC50 is ~5 µM.

Question: What about the IC50 ([6]; SK-MEL-28, 1 h, Sk-mel-28 cells) of the same compound?
Answer: The IC50 was ~3 µM.
